Assay results as given in PubChem BioAssay (NCI).
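At the GI50, growth is halved. At the TGI there is no net growth.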

What was measured:
Assay in all cases: NCI anticancer screen, dose series, 384-well format
HCT-15 colon = system: HCT-15 colon
LOX IMVI melanoma = system: LOX IMVI melanoma
HCC-2998 colon = system: HCC-2998 colon
NCI-H23 lung = system: NCI-H23 lung
K-562 leukemia = system: K-562 leukemia
HOP-62 NSCLC = system: HOP-62 NSCLC
M14 melanoma = system: M14 melanoma
TK-10 renal = system: TK-10 renal
HCT-116 colon = system: HCT-116 colon
BT-549 breast = system: BT-549 breast
NCI-H460 NSCLC = system: NCI-H460 NSCLC
SK-MEL-5 melanoma = system: SK-MEL-5 melanoma
UACC-257 melanoma = system: UACC-257 melanoma
T-47D breast = system: T-47D breast
MOLT-4 leukemia = system: MOLT-4 leukemia
SNB-75 CNS = system: SNB-75 CNS
HT29 colon = system: HT29 colon
PC-3 prostate = system: PC-3 prostate
CAKI-1 renal = system: CAKI-1 renal
RPMI-8226 leukemia = system: RPMI-8226 leukemia
NCI-H522 lung = system: NCI-H522 lung
MCF7 breast = system: MCF7 breast
SK-OV-3 ovarian = system: SK-OV-3 ovarian
NCI-H226 lung = system: NCI-H226 lung
EKVX NSCLC = system: EKVX NSCLC
SR leukemia = system: SR leukemia
OVCAR-3 ovarian = system: OVCAR-3 ovarian
HL-60(TB) leukemia = system: HL-60(TB) leukemia
U251 glioblastoma = system: U251 glioblastoma
A549 NSCLC = system: A549 NSCLC
UACC-62 melanoma = system: UACC-62 melanoma
OVCAR-5 ovarian = system: OVCAR-5 ovarian
SF-539 CNS = system: SF-539 CNS
MALME-3M melanoma = system: MALME-3M melanoma
SF-268 CNS = system: SF-268 CNS
COLO 205 colon = system: COLO 205 colon
786-0 renal = system: 786-0 renal
MDA-MB-468 breast = system: MDA-MB-468 breast
KM12 colon = system: KM12 colon
MDA-MB-435 melanoma = system: MDA-MB-435 melanoma
UO-31 renal = system: UO-31 renal
HOP-92 NSCLC = system: HOP-92 NSCLC
NCI-H322M lung = system: NCI-H322M lung
SNB-19 CNS = system: SNB-19 CNS
CCRF-CEM leukemia = system: CCRF-CEM leukemia
OVCAR-4 ovarian = system: OVCAR-4 ovarian
ACHN renal = system: ACHN renal

`CCS(=O)(=O)N1CCC(C(C)n2c(C)c(C(=O)NCc3c(OC)cc(C)[nH]c3=O)c3ccccc32)CC1` (centres undefined) was tested. Which GI50 (HCT-15 colon) did it give?
The GI50 was > 100 µM.

And the TGI (HCT-15 colon)?
Its TGI is > 100 µM.

And the GI50 (LOX IMVI melanoma)?
Its GI50 is > 78.6 µM.

What about the TGI (LOX IMVI melanoma) of the same compound?
The TGI was > 100 µM.

And the GI50 (HCC-2998 colon)?
Its GI50 is > 100 µM.

What about the TGI (HCC-2998 colon) of the same compound?
Its TGI is > 100 µM.

What about the GI50 (NCI-H23 lung) of the same compound?
Its GI50 is > 100 µM.

What about the TGI (NCI-H23 lung) of the same compound?
Its TGI is > 100 µM.

And the GI50 (K-562 leukemia)?
The GI50 was > 100 µM.

And the TGI (K-562 leukemia)?
The TGI was > 100 µM.

And the GI50 (HOP-62 NSCLC)?
Its GI50 is > 87.9 µM.

What about the TGI (HOP-62 NSCLC) of the same compound?
Its TGI is > 100 µM.

And the GI50 (M14 melanoma)?
The GI50 was > 100 µM.

And the TGI (M14 melanoma)?
Its TGI is > 100 µM.

And the GI50 (TK-10 renal)?
Its GI50 is > 100 µM.

What about the TGI (TK-10 renal) of the same compound?
Its TGI is > 100 µM.

And the GI50 (HCT-116 colon)?
The GI50 was > 100 µM.

What about the TGI (HCT-116 colon) of the same compound?
Its TGI is > 100 µM.

What about the GI50 (BT-549 breast) of the same compound?
The GI50 was > 100 µM.

What about the TGI (BT-549 breast) of the same compound?
The TGI was > 100 µM.

And the GI50 (NCI-H460 NSCLC)?
The GI50 was > 100 µM.

What about the TGI (NCI-H460 NSCLC) of the same compound?
The TGI was > 100 µM.

And the GI50 (SK-MEL-5 melanoma)?
Its GI50 is > 100 µM.

And the TGI (SK-MEL-5 melanoma)?
Its TGI is > 100 µM.

And the GI50 (UACC-257 melanoma)?
Its GI50 is > 100 µM.

And the TGI (UACC-257 melanoma)?
Its TGI is > 100 µM.

And the GI50 (T-47D breast)?
Its GI50 is > 64.5 µM.

What about the TGI (T-47D breast) of the same compound?
The TGI was > 100 µM.

What about the GI50 (MOLT-4 leukemia) of the same compound?
The GI50 was 42.4 µM.

And the TGI (MOLT-4 leukemia)?
The TGI was > 100 µM.

And the GI50 (SNB-75 CNS)?
Its GI50 is > 100 µM.

What about the TGI (SNB-75 CNS) of the same compound?
The TGI was > 100 µM.

What about the GI50 (HT29 colon) of the same compound?
The GI50 was > 100 µM.

And the TGI (HT29 colon)?
The TGI was > 100 µM.

What about the GI50 (PC-3 prostate) of the same compound?
Its GI50 is > 100 µM.

And the TGI (PC-3 prostate)?
The TGI was > 100 µM.

What about the GI50 (CAKI-1 renal) of the same compound?
The GI50 was > 100 µM.

What about the TGI (CAKI-1 renal) of the same compound?
The TGI was > 100 µM.

And the GI50 (RPMI-8226 leukemia)?
The GI50 was 7.49 µM.

What about the TGI (RPMI-8226 leukemia) of the same compound?
The TGI was > 86.4 µM.

And the GI50 (NCI-H522 lung)?
The GI50 was > 100 µM.

And the TGI (NCI-H522 lung)?
The TGI was > 100 µM.

And the GI50 (MCF7 breast)?
Its GI50 is > 78.3 µM.

And the TGI (MCF7 breast)?
Its TGI is > 100 µM.

And the GI50 (SK-OV-3 ovarian)?
The GI50 was > 100 µM.

And the TGI (SK-OV-3 ovarian)?
Its TGI is > 100 µM.

What about the GI50 (NCI-H226 lung) of the same compound?
The GI50 was > 100 µM.

What about the TGI (NCI-H226 lung) of the same compound?
The TGI was > 100 µM.

What about the GI50 (EKVX NSCLC) of the same compound?
Its GI50 is > 100 µM.

What about the TGI (EKVX NSCLC) of the same compound?
The TGI was > 100 µM.

And the GI50 (SR leukemia)?
Its GI50 is > 100 µM.

And the TGI (SR leukemia)?
The TGI was > 100 µM.

And the GI50 (OVCAR-3 ovarian)?
Its GI50 is > 100 µM.

What about the TGI (OVCAR-3 ovarian) of the same compound?
Its TGI is > 100 µM.

What about the GI50 (HL-60(TB) leukemia) of the same compound?
The GI50 was > 100 µM.

And the TGI (HL-60(TB) leukemia)?
The TGI was > 100 µM.

What about the GI50 (U251 glioblastoma) of the same compound?
Its GI50 is > 100 µM.

And the TGI (U251 glioblastoma)?
Its TGI is > 100 µM.

What about the GI50 (A549 NSCLC) of the same compound?
The GI50 was > 100 µM.

And the TGI (A549 NSCLC)?
Its TGI is > 100 µM.

What about the GI50 (UACC-62 melanoma) of the same compound?
The GI50 was > 100 µM.

What about the TGI (UACC-62 melanoma) of the same compound?
Its TGI is > 100 µM.

And the GI50 (OVCAR-5 ovarian)?
Its GI50 is > 100 µM.

And the TGI (OVCAR-5 ovarian)?
Its TGI is > 100 µM.

What about the GI50 (SF-539 CNS) of the same compound?
The GI50 was > 100 µM.

And the TGI (SF-539 CNS)?
Its TGI is > 100 µM.

What about the GI50 (MALME-3M melanoma) of the same compound?
Its GI50 is > 100 µM.

What about the TGI (MALME-3M melanoma) of the same compound?
Its TGI is > 100 µM.

And the GI50 (SF-268 CNS)?
The GI50 was > 42.6 µM.

What about the TGI (SF-268 CNS) of the same compound?
Its TGI is > 96.3 µM.

What about the GI50 (COLO 205 colon) of the same compound?
Its GI50 is > 100 µM.

And the TGI (COLO 205 colon)?
Its TGI is > 100 µM.

What about the GI50 ([…]-0 renal) of the same compound?
Its GI50 is > 100 µM.

And the TGI (786-0 renal)?
The TGI was > 100 µM.

What about the GI50 (MDA-MB-468 breast) of the same compound?
The GI50 was 40 µM.

What about the TGI (MDA-MB-468 breast) of the same compound?
The TGI was > 100 µM.

What about the GI50 (KM12 colon) of the same compound?
Its GI50 is > 100 µM.

What about the TGI (KM12 colon) of the same compound?
Its TGI is > 100 µM.

What about the GI50 (MDA-MB-435 melanoma) of the same compound?
The GI50 was > 100 µM.

What about the TGI (MDA-MB-435 melanoma) of the same compound?
Its TGI is > 100 µM.

What about the GI50 (UO-31 renal) of the same compound?
Its GI50 is > 100 µM.

And the TGI (UO-31 renal)?
Its TGI is > 100 µM.

And the GI50 (HOP-92 NSCLC)?
Its GI50 is > 100 µM.

What about the TGI (HOP-92 NSCLC) of the same compound?
Its TGI is > 100 µM.

What about the GI50 (NCI-H322M lung) of the same compound?
The GI50 was > 100 µM.

What about the TGI (NCI-H322M lung) of the same compound?
Its TGI is > 100 µM.

And the GI50 (SNB-19 CNS)?
The GI50 was > 100 µM.

What about the TGI (SNB-19 CNS) of the same compound?
The TGI was > 100 µM.

And the GI50 (CCRF-CEM leukemia)?
Its GI50 is > 100 µM.

What about the TGI (CCRF-CEM leukemia) of the same compound?
Its TGI is > 100 µM.

What about the GI50 (OVCAR-4 ovarian) of the same compound?
Its GI50 is > 100 µM.

And the TGI (OVCAR-4 ovarian)?
The TGI was > 100 µM.

And the GI50 (ACHN renal)?
The GI50 was > 100 µM.

What about the TGI (ACHN renal) of the same compound?
The TGI was > 100 µM.
